From patent US9339486B2, “Heterocyclic modulators of cannabinoid receptors” (THE CLEVELAND CLINIC FOUNDATION, priority 2008, dated 2016)

Molecular target: hCB2 (human CB2) receptors (Homo sapiens (Human), UniProt P34972)
Test: GTPγ[35S] functional assay, CHO membrane extracts hCB2
Type: biochemical
Method: Functional activity was evaluated using GTPγ[^35S] assay in CHO membrane extracts expressing recombinant hCB1 (human CB1) receptors or hCB2 (human CB2) receptors. The assay relies on the binding of GTPγ[^35S], a radiolabeled nonhydrolyzable GTP analogue, to the G protein upon binding of an agonist of the G-protein-coupled receptor. In this system, agonists stimulate GTPγ[^35S] binding whereas neutral antagonist have no effect and inverse agonists decrease GTPγ[^35S] basal binding.
The compound of Example 3 was solubilized in 100% DMSO at a concentration of 10 mM within 4 hours of the first testing session (master solution). A predilution for the dose response curve was performed in 100% DMSO and then diluted 100 fold in assay buffer at a concentration 2 fold higher than the concentration to be tested. […] For GTPγS membranes were mixed with GDP diluted in assay buffer to give 30 μM solution (volume:volume) and incubated for at least […] on ice. In parallel, GTPγ[^35S] (GE Healthcare, Catalogue number SJ1308) were mixed with the beads (PVT-WGA (GE Healthcare, RPNQ001)), diluted in assay buffer at 50 mg/ml (0.5 mg/10 μl) (volume:volume) just before starting the reaction. […] Then the plates were centrifuged for 10 min at 2000 rpm and counted for 1 min/well with a PerkinElmer TopCount reader. […]

CC1(Cc2ccccc2)COc2cc(C(=O)N3CCCCC3)ccc21 (centres unmarked) [Example 3, 3-benzyl-3-methyl-2,3-dihydrobenzofuran-6-carboxylic acid-piperidine amide]
Emax: 88% | EC50 (read-out: Agonist EC50 (mean ± s.e. mean) GTPγ[35S] functional assays hCB2): 128 nM
